Read-outs that look alike come from different tables or passages of the source. Marks after values point to notes of the source that are not given here.
Tests used:
[1] = cited from earlier work
[2] = Population pharmacokinetic analysis (NONMEM) of artemether-lumefantrine and metabolites in Tanzanian malaria patients (Kibaoni); assay type: in vivo, human; conditions: for clearance / Vd: human, plasma, oral; for Vd: read-out: VSS (steady-state volume of distribution), population estimate for a person of 70 kg
Procedure: Three studies have been conducted, one in Tanzania and two in Cambodia. The study profiles are described in Figure 1. The first study was performed during March to May 2008 at the Kibaoni Health Centre, Kilombero district, Morogoro region, Tanzania. […] Six AM-LF (Coartem®, Novartis Pharma, Switzerland) doses were administered at time 0, 8, […] according to body weight (see Table 1); patients were either admitted for three days or asked to come back to the health facility for each drug administration. Mothers of breastfed patients were encouraged to feed their children and patients admitted were provided with food. Patients who reported that they have not eaten within two hours to prior dose intake were instructed to eat as soon as possible. Patients were seen by the clinical officer on days 0, 1, 2, 3, 7, 14, 28, and 42. A blood sample for pharmacokinetic measurement was taken at baseline (pre-dose on day 0) and on days 1, 2, and 7 at pre-defined random times after the last dosing. At each visit, a filter paper sample and a thin and thick smear were taken, in addition to axillary temperature, respiratory rate and haemoglobin measurements (only on days 0, 28 and 42) as well as evaluation of symptoms (e.g. headache, vomiting, and diarrhea). The exact dose and time of last drug intake, body weight, height, age, sex, food intake and concomitant medications were carefully recorded. If patients suffered from concomitant illnesses they were provided with additional treatment (paracetamol, mebendazole, metronidazole, cloxacillin, amoxicillin). Samples of 2 ml of venous blood were collected on an EDTA Vacutainer and kept on ice for no longer than 6 h after withdrawal and then aliquoted into whole blood, plasma and pellet and immediately stored in liquid nitrogen or a -80°C freezer. […] The laboratory is part of the quality control system of the World-Wide Antimalarial Resistance Network (WWARN). The pharmacokinetic analysis for each drug taken separately was performed using the NONMEM computer program Version 6 (NM-TRAN version II). It uses mixed (fixed and random) effects regression to estimate population means and variances of the pharmacokinetic parameters and to identify factors that influence them. One-, two- and three-compartment pharmacokinetic models with first-order absorption, with and without absorption lag times, were compared. Additional one or two-compartments were used for anti-malarials presenting metabolite concentrations (AM and LF). The final parameters estimated were systemic clearance (CL/F), inter-compartmental clearance (Q/F), central volume of distribution (VC/F), peripheral volume of distribution (VP/F) and absorption rate constant (ka). Since no intravenous drug concentration data were available, these parameters represent apparent values. Where available, metabolite data were included into the model and metabolism rate constant from drug compartment to metabolite compartment (k23) and metabolite clearance (CLmet) were also estimated. Owing to identifiability problems, the volume of distribution of the metabolites (VM) DLF and DHA were assumed to equal LF and AM VC, respectively. […] The observed baseline residual plasma concentrations were fitted by estimating a factor (F0) that provided an estimation of the residual doses from previous treatment. […] Proportional and combined proportional-and-additive error models were compared to describe intra-patient (residual) variability for the mother compound, and if available for its metabolite using Cpij(1 + ε1ij) + ε2ij or Cmij(1 + ε3ij) + ε4ij, where Cpij are the corresponding predicted i^th drug plasma concentration and Cmij are the predicted metabolite concentration for the j^th individual, and ε1ij, ε2ij, ε3ij, ε4ij, are independent normally distributed residual error terms with a mean of zero and a variance of σ^2_1, σ^2_2, σ^2_3, σ^2_4. The covariate analysis was performed using a stepwise insertion/deletion approach. […]

[3] = patients, age 7.7 ± 1.4 years, n 13, sampling 28 days
[4] = patients, median age 4.0 (1–10) years, n 50, sampling 72 h
[5] = patients, median age 22 (14–60) years, n 217
[6] = pregnant women, median age 21 (16–35) years, n 21, sampling 10 h
[7] = bootstrap evaluation, 200 replicates
[8] = present study, Tanzanian patients, sampling 7 days

## CO[C@H]1O[C@@H]2O[C@@]3(C)CC[C@H]4[C@H](C)CC[C@@H]([C@H]1C)[C@@]24OO3 [Artemether, artemether]
[1]; [3]
  CL, population estimate for a person of 70 kg: 102 L/h
  VSS, population estimate for a person of 70 kg: 1263 L
[1]; [4]
  CL, population estimate for a person of 70 kg: 182–700^b L/h
  VSS, population estimate for a person of 70 kg: 364 L
[1]; [5]
  CL, population estimate for a person of 70 kg: 252^a L/h
  VSS, population estimate for a person of 70 kg: 304^a L
[1]; [6]
  CL, population estimate for a person of 70 kg: 1054^d L/h
  VSS, population estimate for a person of 70 kg: 2602^d L
[2]; [7]
  VC, bootstrap mean of 200: 133 L/kg
  k23, bootstrap mean of 200: 5.83 h⁻¹
  ka, bootstrap mean of 200: 0.27 h⁻¹
  θINH, bootstrap mean of 200: −0.27
  σC (CV%), bootstrap mean of 200: 73%
[2]; concomitant treatment
  decrease in CL in patients exposed to a CYP2C9 or CYP3A4 inhibitor: 70%
[2]; final model
  IIV (inter-individual variability) of CL: 44%
  IIV (inter-individual variability) of k23: 68%
  IIV (inter-individual variability) of ka: 119%
  ka (first-order absorption rate constant), population estimate: 0.27 h⁻¹
[2]; final model, intra-patient variability
  σC (CV%), residual error for the central compartment, population estimate: 74%
[2]; final model, parent to metabolite (AM to DHA, LF to DLF)
  k23 (metabolism rate constant), population estimate: 5.86 h⁻¹
[2]; [8]
  clearance: 9970 mL/min
  Vd: 129 L

## C[C@H]1[C@@H](O)O[C@@H]2O[C@@]3(C)CC[C@H]4[C@H](C)CC[C@@H]1[C@@]24OO3 [DHA, dihydroartemisinin]
[1]; [5]
  CL, population estimate for a person of 70 kg: 237^a L/h
[1]; [6]
  CL, population estimate for a person of 70 kg: 564 L/h
[2]; [8]
  clearance: 6980 mL/min
  Vd: 129 L

## CCCCNCC(O)c1cc(Cl)cc2c1-c1ccc(Cl)cc1/C2=C/c1ccc(Cl)cc1 (centres unmarked) [DLF, desbutyl-lumefantrine]
[1]; [3]
  CL, population estimate for a person of 70 kg: 701 L/h
[2]; [8]
  CL, population estimate for a person of 70 kg: 336 L/h
  VSS (steady-state volume of distribution), population estimate for a person of 70 kg: 265^f L
